Source: patent US20230414584A1, “ADMINISTRATION OF ANTIBIOTIC COMPOUNDS FOR THE TREATMENT OF STREPTOCOCCAL INFECTIONS FOR THE TREATMENT OF PSORIASIS” (CENTRE FOR DIGESTIVE DISEASES, priority 2017, published 2023)

Legend:
[1] = test system: extensive plaque psoriasis; experiment: Case report: treatment of psoriasis with Clofazimine, Rifampicin, Tinidazole, Enbrel (Example 4); type: in vivo, human
Description: It was at this time that antibiotics were added to the etanercept (Enbrel™).

psoriasis of the scalp = experiment: Case report: treatment of psoriasis of the scalp in an adult with OCD using Metronidazole (Example 1); type: in vivo, human
Description: A patient with Obsessive-Compulsive Personality Disorder (OCD) commenced treatment in April 2016 with two non-absorbable antibiotics (vancomycin and rifaximin), together with the absorbable Metronidazole. The aim was to suppress their gut bacteria to reduce the OCD.

CN(Cc1cnc2nc(N)nc(N)c2n1)c1ccc(C(=O)N[C@@H](CCC(=O)O)C(=O)O)cc1 [Methotrexate]
adverse effects ([1]; person, steroid-dependent extensive psoriasis): unacceptable adverse effects

Cc1ncc([N+](=O)[O-])n1CCO [Metronidazole]
psoriasis of the scalp (psoriasis of the scalp; patient, Metronidazole given with non-absorbable vancomycin and rifaximin from April 2016, by November of 2016): marked suppression of the psoriasis of the scalp | psoriasis of the scalp (psoriasis of the scalp; same patient, by February of 2017): very little psoriasis left on the scalp

etanercept
response of psoriasis on continued treatment ([1]; in spite of many months of injections, before antibiotics were added): the response stalled | response of psoriasis ([1]; person, before antibiotics were added): reduction of the surface area of their body covered by psoriasis plaque
